Assay results as given in US10087199B2, “Super-resolution imaging compositions and methods using same” (Yale University, priority 2014, dated 2018).

System: fixed cells with labeled Golgi
Assay: Photostability in STED microscopy of fixed cells
Assay type: cell-based
Details: 0.52 frames/sec for 29 min (900 images)
Experimental: To evaluate the merits of Cer-SiR for super-resolution imaging of the Golgi, HeLa cells that stably expressed GalNAcT2-GFP were labeled with Cer-TCO and SiR-Tz, and imaged by confocal and STED microscopy using a commercial Leica instrument (FIGS. 6A-6C). The confocal and STED images were compared in FIG. 6A. […] A direct comparison of the relative photostabilities of Cer-SiR and SiR-SNAP-Rab6 in fixed cells was performed using a custom STED microscope that is optimized for rapid image acquisition (FIG. 6B). Cells labeled with Cer-SiR or SiR-SNAPRab6 were continuously imaged at a rate of 0.52 frames/sec for 29 min (900 images) and the intensity of a line across the Golgi was plotted (FIG. 6B). […]
STED imaging was performed on a custom built system (Bewersdorf lab, Yale University) centered around an 80 MHz mode-locked Ti:Sapphhire laser (Chameleon Ultra II, Coherent) tuned to 755 nm as the STED depletion beam. […] Excitation for fluorescence was accomplished with a 640 nm pulsed diode laser (PicoQuant) electronically synchronized to the depletion beam with an additional computer controlled electronic delay (Colby Instruments). The STED depletion and fluorescence excitation beams were combined with a dichroic mirror and directed into a 100×1.4 NA oil immersion objective lens (UPLSAPO 100XO/PSF, Olympus) where they were focused at the sample. […]

Compound: CCCCCCCCCCCCC/C=C/[C@@H](O)[C@H](CO)NC(=O)CCCCCNC(=O)OC1CCCC2=C(c3ccc(CNC(=O)c4ccc(C(=O)[O-])c(C5=C6C=CC(=[N+](C)C)C=C6[Si](C)(C)c6cc(N(C)C)ccc65)c4)cc3)NN=CC2CC1 (stereo partly drawn) [Cer-SiR, 4-((4-(7-(((6-(((2S,3R,E)-1,3-dihydroxyoctadec-4-en-2-yl)amino)-6-oxohexyl)carbamoyl)oxy)-2,4a,5,6,7,8,9,10-octahydrocycloocta[d]pyridazin-1-yl)benzyl)carbamoyl)-2-(7-(dimethylamino)-3-(dimethyliminio)-5,5-dimethyl-3,5-dihydrodibenzo[b,e]silin-10-yl)benzoate]
- Stability of STED images under continuous imaging: stable throughout all 900 images
